# Experimental data published in patent publication US6764833B1, “Mutated Src oncogene composition and methods” (University of South Florida, priority 1999, dated 2004).
# Target: T1, pp60c-Src (Homo sapiens, UniProt P12931)
# T1 construct: made in house; elsewhere 3Y1 rat fibroblasts are transfected with pcSrc531RI (pcDNA3.1)
# Assay: Competitive inhibition of enolase phosphorylation by Src kinase
# Format: biochemical
# Conditions: 1 μM acid treated enolase; read-out: K50% competitive inhibition of enolase phosphorylation
# Protocol: A library of peptides to be tested as antagonists of pp60 c-Src mutant tyrosine kinase are synthesized according to the procedure disclosed in U.S. Pat. No. 5,532,167 to Cantley, which is incorporated herein by way of reference. Accordingly a peptide Ala-Glu-Glu-Glu-Ile-Tyr-Gly-Glu-Phe-Glu-Ala-Lys-Lys-Lys-Lys is synthesized as an optimal substrate/antagonist for mutant Src tyrosine kinase. The kinetic studies are carried out as follows. Purified mutant kinase is immobilized on protein A beads and kinase reaction is performed in 20 μl of 50 mM Tris pH 7.0 buffer containing 50 mM NaCl, 10 mM MgCl2, 10 μM ATP 5 μCi [gamma-^32P]-ATP (3000 mCi/mmol, NEN) and various dilutions of the peptide. For the experiment measuring the competitive inhibition of c-Src activity by the Src motif-containing peptide, 1 μM (final concentration) acid treated enolase (trans-phosphorylation) is included. After 2.5 minutes incubation, the supernatants are spotted on phosphocellulose paper, washed four times with 75 mM phosphoric acid, and radioactivity counted in a scintillation counter. For phosphorylation of enolase, the reaction is stopped by adding SDS loading buffer and the proteins are resolved on 10% SDS-PAGE gels. The Km and Vmax are calculated using a standard computer software. The peptide is a good substrate for pp60c-Src, with Km of 2 μM and Vmax of 0.9 μM/mg/min. […]
# T1 sequence (P12931 2-530): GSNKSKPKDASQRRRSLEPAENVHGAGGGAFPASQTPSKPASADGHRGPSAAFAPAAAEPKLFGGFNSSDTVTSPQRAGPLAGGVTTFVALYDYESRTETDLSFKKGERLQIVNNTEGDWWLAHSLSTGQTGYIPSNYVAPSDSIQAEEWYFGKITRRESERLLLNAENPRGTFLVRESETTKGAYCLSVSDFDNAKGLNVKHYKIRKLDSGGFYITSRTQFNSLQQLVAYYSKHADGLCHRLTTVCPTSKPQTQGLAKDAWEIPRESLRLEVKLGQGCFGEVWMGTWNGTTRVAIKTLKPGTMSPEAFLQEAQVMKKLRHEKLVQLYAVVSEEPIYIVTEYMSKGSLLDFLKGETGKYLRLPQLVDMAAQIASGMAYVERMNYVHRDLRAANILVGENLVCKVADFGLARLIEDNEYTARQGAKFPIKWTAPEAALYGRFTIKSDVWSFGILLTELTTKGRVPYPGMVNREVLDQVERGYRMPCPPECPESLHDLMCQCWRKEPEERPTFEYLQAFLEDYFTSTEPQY
compound,measurement,value
CC[C@H](C)[C@H](NC(=O)[C@H](CCC(=O)O)NC(=O)[C@H](CCC(=O)O)NC(=O)[C@H](CCC(=O)O)NC(=O)[C@H](C)N)C(=O)N[C@@H](Cc1ccc(O)cc1)C(=O)NCC(=O)N[C@@H](CCC(=O)O)C(=O)N[C@@H](Cc1ccccc1)C(=O)N[C@@H](CCC(=O)O)C(=O)N[C@@H](C)C(=O)N[C@@H](CCCCN)C(=O)N[C@@H](CCCCN)C(=O)N[C@@H](CCCCN)C(=O)N[C@@H](CCCCN)C(=O)O [Ala-Glu-Glu-Glu-Ile-Tyr-Gly-Glu-Phe-Glu-Ala-Lys-Lys-Lys-Lys],IC50,5 µM
